What all share (format): cell-based
One assay deals with NF-κB. Conditions: HEK-293/NF-κB-luc cells.
In another assay the test system is rat aortic VSMCs. Put plainly: PDGF-induced VSMC proliferation. The settings on record: PDGF-activated rat aortic VSMCs.
The test system of a further assay is human umbilical vein ECs. Put plainly: Endothelial cell. Conditions: 30 μM.

Take `COc1ccc([C@H]2OC[C@H](Cc3ccc(C(C)(C)C)cc3)[C@@H]2CO)cc1OC` [7b, ((2S,3R,4R)-4-(4-(tert-Butyl)benzyl)-2-(3,4-dimethoxyphenyl)tetrahydrofuran-3-yl)methanol]: the “NF-κB inhibition (in words)” value in the assay with NF-κB was “inactive”. For the same compound, the “VSMC proliferation inhibition (in words)” value in the assay on rat aortic VSMCs is on record as “much more active”.

On to `COc1ccc(C[C@H]2CO[C@H](c3ccc(OC)c(OC)c3)[C@H]2COC(=O)C=C(C)C)cc1OC` [1b, ((2S,3R,4R)-4-(3,4-Dimethoxybenzyl)-2-(3,4-dimethoxyphenyl)tetrahydrofuran-3-yl)methyl 3-methylbut-2-enoate], for which, in the assay with NF-κB, the “NF-κB inhibition (in words)” value was “much more suppressive effect”. Moreover, the “VSMC proliferation inhibition (in words)” value in the assay on rat aortic VSMCs is listed as “remained unaffected”.

On to `COc1ccc(C[C@H]2CO[C@H](c3ccc(OC)c(OC)c3)[C@H]2COC(=O)CC(C)C)cc1OC` [1c], for which, in the assay with NF-κB, the “NF-κB inhibition (in words)” value is “similarly strong inhibition to 1b”. The “VSMC proliferation inhibition (in words)” value with rat aortic VSMCs is reported as “no effect”.

Take `C/C=C(/C)C(=O)OC[C@H]1[C@@H](Cc2ccc(C(F)(F)F)cc2)CO[C@@H]1c1ccc(F)cc1` [1j, (Z)-((2S,3R,4R)-2-(4-Fluorophenyl)-4-(4-(trifluoromethyl)benzyl)tetrahydrofuran-3-yl)methyl 2-methylbut-2-enoate]: in the assay on NF-κB, the “NF-κB inhibition (in words)” value is “no inhibition”. The “EC proliferation inhibition (in words)” value in the assay with human umbilical vein ECs is given as “no inhibition”.
